Patent US4312867A, “Antibacterial compounds, processes for their preparation and compositions containing them” (Beecham Group Limited, priority 1979, dated 1982)
Values after ≈ are worked out from the molar mass of the structure shown. Like-named read-outs stand apart in the source and are kept apart here.

Key:
Ps. aeruginosa 10662 = assay: MIC human bacteria (Table 1), serial dilution in nutrient agar; type: cell-based; details: Pseudomonas aeruginosa, nutrient agar with 5% chocolated horse blood
[1] = test system: Strep suis (group D) SPS11; assay: MIC veterinary bacteria (Table 2), serial dilution in agar; type: cell-based; details: diagnostic sensitivity test agar
Strep pneumoniae CN33 = assay: MIC human bacteria (Table 1), serial dilution in nutrient agar; type: cell-based; details: nutrient agar with 5% chocolated horse blood
[2] = test system: 12 strains of M. suipneumoniae; assay: anti-mycoplasmal MIC, Friis broth solidified with agarose (Table 4), mean over strains; type: cell-based; details: Mesomycoplasma hyopneumoniae, 144 h; mean of 12 strains; 6 days at 37° C.; read-out: Mean MIC for above 12 strains of M. suipneumoniae
Past multocida PA1 = assay: MIC veterinary bacteria (Table 2), serial dilution in agar; type: cell-based; details: diagnostic sensitivity test agar
[3] = test system: M. bovigenitalium ATCC 14173; assay: anti-mycoplasmal MIC, Friis broth solidified with agarose (Table 4); type: cell-based; details: 144 h
[4] = test system: Corynebacterium pyogenes CY1; assay: MIC veterinary bacteria (Table 2), serial dilution in agar; type: cell-based; details: Trueperella pyogenes, diagnostic sensitivity test agar
E. coli E1 = assay: as above; type: cell-based; details: Escherichia coli, diagnostic sensitivity test agar
[5] = test system: Staph aureus 152 (pen. sens); assay: as above; type: cell-based; details: Staphylococcus aureus, diagnostic sensitivity test agar
[6] = test system: Erysipelothrix rhusiopathiae NCTC 8163; assay: as above; type: cell-based; details: NCTC8163
Bacillus subtilis 6633 = assay: MIC human bacteria (Table 1), serial dilution in nutrient agar; type: cell-based; details: nutrient agar with 5% chocolated horse blood
[7] = Serum binding by ultrafiltration of porcine serum; type: in vitro ADME; details: pig, 8 mcg/ml, microbiological assay, read-out: % bound to pig serum (converted)
Protocol: Serum binding was assessed by ultrafiltration of porcine serum containing compounds at 8 mcg/ml, and through an Amicon CF50A ultrafiltration cone. Separation of ultrafiltrate was achieved by centrifugation. Unbound concentrations of compound were measured in the ultrafiltrate by microbiological assay (B. subtilis ATCC 6633) against standards prepared in saline.

E. coli NCTC 10418 [8] = assay: MIC human bacteria (Table 1), serial dilution in nutrient agar; type: cell-based; details: Escherichia coli, NCTC10418; E. coli NCTC 10418; nutrient agar with 5% chocolated horse blood; read-out: MIC
Staph aureus Russell = assay: as above; type: cell-based; details: Staphylococcus aureus, nutrient agar with 5% chocolated horse blood
Strep pyogenes C 2761 = assay: as above; type: cell-based; details: nutrient agar with 5% chocolated horse blood
[9] = test system: Corynebacterium xerosis 9755; assay: as above; type: cell-based; details: nutrient agar with 5% chocolated horse blood
Staph aureus W2827 = assay: as above; type: cell-based; details: Staphylococcus aureus, nutrient agar with 5% chocolated horse blood
Sarcina lutea 8340 = assay: as above; type: cell-based; details: nutrient agar with 5% chocolated horse blood
Strep uberis SPU1 = assay: MIC veterinary bacteria (Table 2), serial dilution in agar; type: cell-based; details: diagnostic sensitivity test agar
[10] = test system: Staph aureus B4 (pen. resis); assay: as above; type: cell-based; details: Staphylococcus aureus; Staph aureus B4 (pen. resis); diagnostic sensitivity test agar; read-out: MIC
[11] = test system: Neisseria catarrhalis 1502; assay: MIC human bacteria (Table 1), serial dilution in nutrient agar; type: cell-based; details: nutrient agar with 5% chocolated horse blood
Past multocida PA2 = assay: MIC veterinary bacteria (Table 2), serial dilution in agar; type: cell-based; details: diagnostic sensitivity test agar
Staph aureus Oxford [12] = assay: as above; type: cell-based; details: Staphylococcus aureus; Staph aureus Oxford; diagnostic sensitivity test agar; read-out: MIC
Strep pyogenes B 2788 = assay: MIC human bacteria (Table 1), serial dilution in nutrient agar; type: cell-based; details: nutrient agar with 5% chocolated horse blood
S. typhimurium S18 = assay: MIC veterinary bacteria (Table 2), serial dilution in agar; type: cell-based; details: Salmonella enterica, diagnostic sensitivity test agar
K. aerogenes A = assay: MIC human bacteria (Table 1), serial dilution in nutrient agar; type: cell-based; details: Klebsiella aerogenes, nutrient agar with 5% chocolated horse blood
E. coli NCTC 10418 [13] = assay: MIC veterinary bacteria (Table 2), serial dilution in agar; type: cell-based; details: Escherichia coli, NCTC10418; E. coli NCTC 10418; diagnostic sensitivity test agar; read-out: MIC
E. coli ESS = assay: MIC human bacteria (Table 1), serial dilution in nutrient agar; type: cell-based; details: Escherichia coli; E. coli ESS; nutrient agar with 5% chocolated horse blood; read-out: MIC
Strep dysgalaciae SPD1 = assay: MIC veterinary bacteria (Table 2), serial dilution in agar; type: cell-based; details: diagnostic sensitivity test agar
Staph aureus Oxford [14] = assay: MIC human bacteria (Table 1), serial dilution in nutrient agar; type: cell-based; details: Staphylococcus aureus, nutrient agar with 5% chocolated horse blood
Bord bronchiseptica B09 = assay: MIC veterinary bacteria (Table 2), serial dilution in agar; type: cell-based; details: diagnostic sensitivity test agar
P. mirabilis 889 = assay: MIC human bacteria (Table 1), serial dilution in nutrient agar; type: cell-based; details: Proteus mirabilis; P. mirabilis 889; nutrient agar with 5% chocolated horse blood; read-out: MIC
[15] = test system: Pasteurella multocida 1633; assay: as above; type: cell-based
[16] = test system: Haemophilus influenzae Wy21; assay: as above; type: cell-based
Bord bronchiseptica B08 = assay: MIC veterinary bacteria (Table 2), serial dilution in agar; type: cell-based; details: diagnostic sensitivity test agar
S. dublin S7 = assay: as above; type: cell-based; details: Salmonella enterica, diagnostic sensitivity test agar
M. suipneumoniae TAM 6N = assay: anti-mycoplasmal MIC, Friis broth solidified with agarose (Table 4); type: cell-based; details: Mesomycoplasma hyopneumoniae, TAM6N, 144 h, 6 days at 37° C.
[17] = test system: Haemophilus influenzae Q1; assay: MIC human bacteria (Table 1), serial dilution in nutrient agar; type: cell-based
Strep pyogenes A 64/848 = assay: as above; type: cell-based; details: nutrient agar with 5% chocolated horse blood
Strep faecalis I = assay: as above; type: cell-based; details: nutrient agar with 5% chocolated horse blood
Strep agalactiae SPA1 = assay: MIC veterinary bacteria (Table 2), serial dilution in agar; type: cell-based; details: diagnostic sensitivity test agar

## C/C(=C\C(=O)OCCCS(=O)(=O)N(C)C)CC1OCC(CC2OC2C(C)C(C)O)C(O)C1O (stereo not shown) [Example 4, 3-N,N-Dimethylsulphamoylpropyl monate A]
Ps. aeruginosa 10662
  MIC: > 100 µg/mL
[1]
  MIC: 40 µg/mL (≈ 81 µM)
Strep pneumoniae CN33
  MIC: 1 µg/mL (≈ 2.03 µM)
[2]
  MIC: 750 µg/mL (≈ 1520 µM)
Past multocida PA1
  MIC: 0.625 µg/mL (≈ 1.27 µM)
[3]
  MIC: 50 µg/mL (≈ 101 µM)
[4]
  MIC: > 80 µg/mL
E. coli E1
  MIC: > 80 µg/mL
[5]
  MIC: 2.5 µg/mL (≈ 5.06 µM)
[6]; Erysipelothrix rhusiopathiae NCTC 8163, diagnostic sensitivity test agar, read-out: MIC
  MIC: > 80 µg/mL
Bacillus subtilis 6633
  MIC: 2.5 µg/mL (≈ 5.06 µM)
[7]
  fraction unbound: 0.053
E. coli NCTC 10418 [8]
  MIC: > 100 µg/mL
Staph aureus Russell
  MIC: 10 µg/mL (≈ 20.3 µM)
Strep pyogenes C 2761
  MIC: 5 µg/mL (≈ 10.1 µM)
[9]
  MIC: No Growth
Staph aureus W2827
  MIC: 10 µg/mL (≈ 20.3 µM)
Sarcina lutea 8340
  MIC: No Growth
Strep uberis SPU1
  MIC: 2.5 µg/mL (≈ 5.06 µM)
[10]
  MIC: 5 µg/mL (≈ 10.1 µM)
[11]
  MIC: 1 µg/mL (≈ 2.03 µM)
Past multocida PA2
  MIC: 0.312 µg/mL (≈ 0.632 µM)
Staph aureus Oxford [12]
  MIC: 2.5 µg/mL (≈ 5.06 µM)
Strep pyogenes B 2788
  MIC: 2.5 µg/mL (≈ 5.06 µM)
S. typhimurium S18
  MIC: > 80 µg/mL
K. aerogenes A
  MIC: > 100 µg/mL
E. coli NCTC 10418 [13]
  MIC: > 80 µg/mL
E. coli ESS
  MIC: 2.5 µg/mL (≈ 5.06 µM)
Strep dysgalaciae SPD1
  MIC: 2.5 µg/mL (≈ 5.06 µM)
Staph aureus Oxford [14]
  MIC: 10 µg/mL (≈ 20.3 µM)
Bord bronchiseptica B09
  MIC: 20 µg/mL (≈ 40.5 µM)
P. mirabilis 889
  MIC: > 100 µg/mL
[15]; Pasteurella multocida, 1633
  MIC: 0.5 µg/mL (≈ 1.01 µM)
[16]; Haemophilus influenzae, WY21
  MIC: 0.1 µg/mL (≈ 0.203 µM)
Bord bronchiseptica B08
  MIC: 80 µg/mL (≈ 162 µM)
S. dublin S7
  MIC: > 80 µg/mL
M. suipneumoniae TAM 6N
  MIC: 1000 µg/mL (≈ 2030 µM)
[17]; Haemophilus influenzae, Q1
  MIC: 0.1 µg/mL (≈ 0.203 µM)
Strep pyogenes A 64/848
  MIC: 2.5 µg/mL (≈ 5.06 µM)
Strep faecalis I
  MIC: > 100 µg/mL
Strep agalactiae SPA1
  MIC: 2.5 µg/mL (≈ 5.06 µM)

## C/C(=C\C(=O)OC(C)CCCCCS(N)(=O)=O)CC1OCC(CC2OC2C(C)C(C)O)C(O)C1O (stereo not shown) [Example 5, 7-Sulphamoylhept-2-yl monate A]
Ps. aeruginosa 10662
  MIC: > 100 µg/mL
[1]
  MIC: 5 µg/mL (≈ 9.58 µM)
Strep pneumoniae CN33
  MIC: 1 µg/mL (≈ 1.92 µM)
[2]
  MIC: 480 µg/mL (≈ 920 µM)
Past multocida PA1
  MIC: 0.625 µg/mL (≈ 1.2 µM)
[3]; M. bovigenitalium ATCC 14173, 6 days at 37° C., read-out: MIC
  MIC: 50 µg/mL (≈ 95.8 µM)
[4]
  MIC: 80 µg/mL (≈ 153 µM)
E. coli E1
  MIC: > 80 µg/mL
[5]
  MIC: 1.25 µg/mL (≈ 2.4 µM)
[6]; Erysipelothrix rhusiopathiae
  MIC: 40 µg/mL (≈ 76.7 µM)
Bacillus subtilis 6633
  MIC: 2.5 µg/mL (≈ 4.79 µM)
[7]
  fraction unbound: 0.354
E. coli NCTC 10418 [8]
  MIC: > 100 µg/mL
Staph aureus Russell
  MIC: 10 µg/mL (≈ 19.2 µM)
Strep pyogenes C 2761
  MIC: 2.5 µg/mL (≈ 4.79 µM)
[9]
  MIC: No Growth
Staph aureus W2827
  MIC: 25 µg/mL (≈ 47.9 µM)
Sarcina lutea 8340
  MIC: No Growth
Strep uberis SPU1
  MIC: 0.625 µg/mL (≈ 1.2 µM)
[10]
  MIC: 5 µg/mL (≈ 9.58 µM)
[11]
  MIC: 1 µg/mL (≈ 1.92 µM)
Past multocida PA2
  MIC: 0.312 µg/mL (≈ 0.598 µM)
Staph aureus Oxford [12]
  MIC: 1.25 µg/mL (≈ 2.4 µM)
Strep pyogenes B 2788
  MIC: 2.5 µg/mL (≈ 4.79 µM)
S. typhimurium S18
  MIC: > 80 µg/mL
K. aerogenes A
  MIC: > 100 µg/mL
E. coli NCTC 10418 [13]
  MIC: > 80 µg/mL
E. coli ESS
  MIC: 2.5 µg/mL (≈ 4.79 µM)
Strep dysgalaciae SPD1
  MIC: 0.625 µg/mL (≈ 1.2 µM)
Staph aureus Oxford [14]
  MIC: 10 µg/mL (≈ 19.2 µM)
Bord bronchiseptica B09
  MIC: 10 µg/mL (≈ 19.2 µM)
P. mirabilis 889
  MIC: > 100 µg/mL
[15]; Pasteurella multocida 1633, nutrient agar with 5% chocolated horse blood, read-out: MIC
  MIC: 2.5 µg/mL (≈ 4.79 µM)
[16]; Haemophilus influenzae Wy21, nutrient agar with 5% chocolated horse blood, read-out: MIC
  MIC: 0.2 µg/mL (≈ 0.383 µM)
Bord bronchiseptica B08
  MIC: 40 µg/mL (≈ 76.7 µM)
S. dublin S7
  MIC: > 80 µg/mL
M. suipneumoniae TAM 6N
  MIC: 500 µg/mL (≈ 958 µM)
[17]; Haemophilus influenzae Q1, nutrient agar with 5% chocolated horse blood, read-out: MIC
  MIC: 0.2 µg/mL (≈ 0.383 µM)
Strep pyogenes A 64/848
  MIC: 2.5 µg/mL (≈ 4.79 µM)
Strep faecalis I
  MIC: > 100 µg/mL
Strep agalactiae SPA1
  MIC: 1.25 µg/mL (≈ 2.4 µM)
